According to the supplement of paper PMC11061612:

What was measured:
Experiment in all cases: Bliss excess, mean over the matrix (fraction); higher = more synergy
NCI-H226 (Mesothelioma) = system: NCI-H226 (Mesothelioma)
In short: (§1)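 After 24 hours at 37°C and 5% CO2 in 1536-well plates, cells in DMEM/F12 or RPMI plus 10% FBS received two-drug dose matrices for 72 hours. Viability came from CellTiter-Glo 2.0 luminescence and was scaled as inhibition, anchored at 0 by vehicle wells and at 1 by blank wells. Combination Emax is taken as the second-highest inhibition in the matrix, and Bliss excess as the observed combination effect less EA + EB − EA·EB, with EA and EB the single-agent effects.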

[1] = system: MM1S (Plasma Cell Myeloma)
In short: as §1

[2] = system: TUR (Acute Myeloid Leukemia)
In short: as §1

[3] = system: BxPC-3 (Pancreatic Carcinoma)
In short: as §1

KALS-1 (Glioblastoma) = system: KALS-1 (Glioblastoma)
In short: as §1

T47D (Breast Carcinoma) = system: T47D (Breast Carcinoma)
In short: as §1

[4] = system: PA-TU-8988T (Pancreatic Carcinoma)
In short: as §1

IST-MEL1 (Melanoma) = system: IST-MEL1 (Melanoma)
In short: as §1

UACC-257 (Melanoma) = system: UACC-257 (Melanoma)
In short: as §1

[5] = system: SAT (Head and Neck Carcinoma)
In short: as §1

[6] = system: T84 (Colorectal Carcinoma)
In short: as §1

[7] = system: SNU-407 (Colorectal Carcinoma)
In short: as §1

[8] = system: HT-1080 (Other Solid Carcinomas)
In short: as §1

[9] = system: PL4 (Pancreatic Carcinoma)
In short: as §1

Row | SMILES | Bliss excess (NCI-H226 (Mesothelioma)) | Bliss excess [1] | Bliss excess [2] | Bliss excess [3] | Bliss excess (KALS-1 (Glioblastoma)) | Bliss excess (T47D (Breast Carcinoma)) | Bliss excess [4] | Bliss excess (IST-MEL1 (Melanoma)) | Bliss excess (UACC-257 (Melanoma)) | Bliss excess [5] | Bliss excess [6] | Bliss excess [7] | Bliss excess [8] | Bliss excess [9]
1 | CN(CCO)CC[C@H](CSc1ccccc1)Nc1ccc(S(=O)(=O)NC(=O)c2ccc(N3CCC([C@@H](O)c4ccccc4-c4ccc(Cl)cc4)CC3)cc2)cc1S(=O)(=O)C(F)(F)F [AZD4320] + C[C@@H](Nc1cc(F)cc(F)c1)c1cc(C(=O)N(C)C)cc2c(=O)cc(N3CCOCC3)oc12 [AZD8186] (first compound max 1 µM, 7x7, partner max 3 µM) | -0.015 | 0.0538 | 0.0019 | 0.0345 | 0.0385 | -0.0242 | -0.005 | 0.0237 | 0.0488 | -0.0231 | -0.0287 | -0.0167 | -0.0232 | -0.0411
2 | COc1cccc(OCCCN)c1-c1cc(Nc2cnc(C#N)cn2)n[nH]1 [Prexasertib] + C=CCn1c(=O)c2cnc(Nc3ccc(N4CCN(C)CC4)cc3)nc2n1-c1cccc(C(C)(C)O)n1 [AZD1775] (first compound max 1 µM, partner max 1 µM) | 0.0023 | 0.0356 | 0.105 | -0.0074 | -0.0436 | 0.085 | 0.227 | 0.0406 | 0.0714 | -0.0318 | 0.144 | 0.0807 | 0.0643 | 0.0483
3 | CN(C)CCCOc1ccc(-c2ccc3ncc4c(c3c2)n(C2CCOCC2)c(=O)n4C)cn1 [AZD0156] + CCN(CCO)CCCOc1ccc2c(Nc3cc(CC(=O)Nc4cccc(F)c4)[nH]n3)ncnc2c1 [AZD2811] (first compound max 1 µM, 7x7, partner max 1 µM) | -0.0676 | 0.0135 | 0.0563 | -0.0212 | -0.0245 | -0.0062 | 0.0079 | -0.0131 | -0.039 | -0.0362 | -0.0248 | -0.0247 | -0.0159 | 0.0286
4 | COc1cccc(OCCCN)c1-c1cc(Nc2cnc(C#N)cn2)n[nH]1 [Prexasertib] + CCc1c2c(nc3ccc(O)cc13)-c1cc3c(c(=O)n1C2)COC(=O)[C@]3(O)CC [SN-38] (first compound max 1 µM, 7x7, partner max 0.3 µM) | -0.058 | -0.0065 | 0.0107 | 0.0111 | 0.0399 | -0.0399 | 0.167 | -0.0552 | -0.0664 | -0.007 | 0.0636 | -0.0384 | -0.0274 | -0.0027
5 | C=CCn1c(=O)c2cnc(Nc3ccc(N4CCN(C)CC4)cc3)nc2n1-c1cccc(C(C)(C)O)n1 [AZD1775] + O=C(c1cc(Cc2n[nH]c(=O)c3ccccc23)ccc1F)N1CCN(C(=O)C2CC2)CC1 [Olaparib] (first compound max 1 µM, partner max 10 µM) | -0.035 | -0.0321 | 0.0029 | -0.0266 | -0.0611 | -0.0095 | -0.0094 | -0.0596 | -0.0197 | -0.0474 | -0.0136 | -0.0364 | -0.0327 | 0.0037
6 | CC1(C)CCC(CN2CCN(c3ccc(C(=O)NS(=O)(=O)c4ccc(NCC5CCOCC5)c([N+](=O)[O-])c4)c(Oc4cnc5[nH]ccc5c4)c3)CC2)=C(c2ccc(Cl)cc2)C1 [Venetoclax] + CN(C)CCCOc1ccc(-c2ccc3ncc4c(c3c2)n(C2CCOCC2)c(=O)n4C)cn1 [AZD0156] (first compound max 1 µM, 7x7, partner max 1 µM) | -0.0536 | 0.0344 | -0.0102 | -0.0304 | -0.0717 | -0.0366 | -0.0102 | -0.0207 | -0.004 | -0.015 | -0.0452 | -0.0437 | -0.0434 | -0.0397
7 | Cc1cc2ncnn2cc1Nc1ncc2c(n1)n(C1CCOCC1)c(=O)n2C [AZD7648] + O=C(c1cc(Cc2n[nH]c(=O)c3ccccc23)ccc1F)N1CCN(C(=O)C2CC2)CC1 [Olaparib] (first compound max 10 µM, 7x7, partner max 10 µM) | -0.0801 | 0.0141 | 0.0054 | -0.0712 | -0.0225 | -0.042 | -0.0047 | -0.0517 | -0.0422 | -0.039 | -0.0256 | -0.0796 | -0.0165 | -0.0364
8 | CCN(CCO)CCCOc1ccc2c(Nc3cc(CC(=O)Nc4cccc(F)c4)[nH]n3)ncnc2c1 [AZD2811] + C=CCn1c(=O)c2cnc(Nc3ccc(N4CCN(C)CC4)cc3)nc2n1-c1cccc(C(C)(C)O)n1 [AZD1775] (first compound max 1 µM, partner max 1 µM) | -0.0708 | 0.0048 | 0.117 | -0.0099 | -0.0307 | -0.0236 | 0.0311 | 0.0196 | -0.032 | 0.033 | -0.0627 | -0.015 | 0.025 | -0.0002
9 | CC1(C)CCC(CN2CCN(c3ccc(C(=O)NS(=O)(=O)c4ccc(NCC5CCOCC5)c([N+](=O)[O-])c4)c(Oc4cnc5[nH]ccc5c4)c3)CC2)=C(c2ccc(Cl)cc2)C1 [Venetoclax] + Cc1cc2ncnn2cc1Nc1ncc2c(n1)n(C1CCOCC1)c(=O)n2C [AZD7648] (first compound max 1 µM, 7x7, partner max 10 µM) | -0.0552 | 0.0556 | -0.0016 | -0.0374 | -0.0904 | -0.0459 | -0.0251 | -0.0486 | -0.0235 | -0.0171 | -0.0267 | 0.0174 | -0.0487 | -0.0297
10 | Cc1cc2ncnn2cc1Nc1ncc2c(n1)n(C1CCOCC1)c(=O)n2C [AZD7648] + CCN(CCO)CCCOc1ccc2c(Nc3cc(CC(=O)Nc4cccc(F)c4)[nH]n3)ncnc2c1 [AZD2811] (first compound max 10 µM, 7x7, partner max 1 µM) | -0.0733 | 0.0333 | 0.0523 | -0.0052 | 0.0068 | 0.055 | 0.0056 | 0.03 | 0.0315 | -0.0101 | 0.0161 | 0.023 | 0.0364 | -0.0041
11 | CN(CCO)CC[C@H](CSc1ccccc1)Nc1ccc(S(=O)(=O)NC(=O)c2ccc(N3CCC([C@@H](O)c4ccccc4-c4ccc(Cl)cc4)CC3)cc2)cc1S(=O)(=O)C(F)(F)F [AZD4320] + Cc1cc2ncnn2cc1Nc1ncc2c(n1)n(C1CCOCC1)c(=O)n2C [AZD7648] (first compound max 1 µM, 7x7, partner max 10 µM) | -0.0674 | 0.0657 | 0.0088 | -0.024 | -0.0096 | -0.0255 | -0.043 | -0.0465 | -0.0351 | -0.0621 | -0.0314 | 0.0313 | -0.0757 | -0.0631
12 | CCN(CCO)CCCOc1ccc2c(Nc3cc(CC(=O)Nc4cccc(F)c4)[nH]n3)ncnc2c1 [AZD2811] + O=C(c1cc(Cc2n[nH]c(=O)c3ccccc23)ccc1F)N1CCN(C(=O)C2CC2)CC1 [Olaparib] (first compound max 1 µM, 7x7, partner max 10 µM) | -0.0448 | 0.0541 | 0.0637 | 0.0032 | 0.0144 | 0.005 | 0.0228 | 0.0192 | -0.0322 | -0.0469 | -0.0067 | -0.0292 | -0.0043 | -0.0043
13 | Cc1c2c(nn1C)CSCc1cc(n(C)n1)CSc1cc(c3ccccc3c1)OCCCc1c(C(=O)O)n(C)c3c-2c(Cl)ccc13 [AZD5991] + Cc1cc2ncnn2cc1Nc1ncc2c(n1)n(C1CCOCC1)c(=O)n2C [AZD7648] (first compound max 1 µM, 7x7, partner max 10 µM) | -0.061 | 0.0085 | -0.0488 | -0.0007 | -0.008 | -0.0159 | -0.051 | -0.0048 | -0.0242 | -0.0599 | -0.0431 | -0.0369 | -0.0256 | -0.0395
14 | Cc1c2c(nn1C)CSCc1cc(n(C)n1)CSc1cc(c3ccccc3c1)OCCCc1c(C(=O)O)n(C)c3c-2c(Cl)ccc13 [AZD5991] + C=CCn1c(=O)c2cnc(Nc3ccc(N4CCN(C)CC4)cc3)nc2n1-c1cccc(C(C)(C)O)n1 [AZD1775] (first compound max 1 µM, partner max 1 µM) | 0.018 | 0.0547 | 0.0189 | -0.0125 | -0.0169 | -0.0369 | -0.0321 | -0.0318 | 0.0163 | 0.0173 | -0.0287 | -0.0183 | 0.0345 | -0.0928
15 | COc1cc2c(cc1OCCCCCOc1cc3c(cc1OC)C(=O)N1C=C(C)C[C@H]1C=N3)N=C[C@@H]1CC(C)=CN1C2=O [SG3199] + O=C(c1cc(Cc2n[nH]c(=O)c3ccccc23)ccc1F)N1CCN(C(=O)C2CC2)CC1 [Olaparib] (first compound max 0.001 µM, 7x7, partner max 10 µM) | -0.0581 | 0.0663 | 0.0081 | -0.0403 | -0.0155 | -0.0449 | 0.0053 | -0.0196 | -0.0419 | -0.0203 | -0.0279 | -0.0378 | -0.02 | 0.0304
16 | CC1(C)CCC(CN2CCN(c3ccc(C(=O)NS(=O)(=O)c4ccc(NCC5CCOCC5)c([N+](=O)[O-])c4)c(Oc4cnc5[nH]ccc5c4)c3)CC2)=C(c2ccc(Cl)cc2)C1 [Venetoclax] + CCN(CCO)CCCOc1ccc2c(Nc3cc(CC(=O)Nc4cccc(F)c4)[nH]n3)ncnc2c1 [AZD2811] (first compound max 1 µM, 7x7, partner max 1 µM) | -0.0604 | 0.0157 | 0.0132 | 0.0003 | 0.0005 | 0.0229 | -0.0549 | 0.0278 | -0.0105 | -0.0043 | -0.0249 | -0.036 | -0.0407 | -0.0704
17 | CN(CCO)CC[C@H](CSc1ccccc1)Nc1ccc(S(=O)(=O)NC(=O)c2ccc(N3CCC([C@@H](O)c4ccccc4-c4ccc(Cl)cc4)CC3)cc2)cc1S(=O)(=O)C(F)(F)F [AZD4320] + CN(C)CCCOc1ccc(-c2ccc3ncc4c(c3c2)n(C2CCOCC2)c(=O)n4C)cn1 [AZD0156] (first compound max 1 µM, 7x7, partner max 1 µM) | -0.0589 | 0.0753 | -0.0023 | -0.0239 | -0.0076 | -0.0056 | -0.005 | -0.0151 | -0.0323 | -0.0214 | -0.0243 | -0.0555 | -0.0895 | 0.0463
